The results in this text go back to patent EP0116439A2, “Fatty acid containing hair tonic composition” (priority 1983, dated 1984).

Each structure is given as a SMILES string.

The first experiment concerns the target testosterone 5α-reductase. As to the kind of experiment: testosterone 5α-reductase inhibitory activity (conversion of labelled testosterone to 5α-dihydrotestosterone). Type of experiment: biochemical, rats. As to conditions: microsome from rat prostate gland cells, 25°C, 60 minutes, pH 6.6. The procedure: The Sa-reductase inhibitory activity was determined as follows.
Prostate gland cells of rats were crushed and a specimen of testosterone 5α-reductase was then prepared by separating microsome from the crushed liquid mixture. The conversion of the testosterone to 5α-dihydrotestosterone by the use of the above-prepared enzyme specimen was monitored by radioisotopically labelled testosterone. The reaction mixture was extracted with ethyl acetate and the extract was developed twice by silica gel thin layer chromatography (solvent system, dichloromethane: cyclohexane:acetone = 15:4:1). The amount of 5α-dihydrotestosterone were determined from the intensities of the radioactivity.
A 30 µl amount of a 0.05 M phosphate buffer (pH = 6.6), 10 µl of an enzyme specimen, 8.5 pmol of labelled testosterone, 50 nmol of a reduced form of NADP (nicotinamide adenine dinucleotide phosphate), and 10 µl of a test sample were mixed (final volume = 50 µl). The mixture was included at a temperature of 25°C for 60 minutes.
The reaction was stopped by the addition of 100 ul of ethyl acetate, and the reaction mixture was extracted by vigorous shaking. The extract was developed in the same manner as mentioned above and the intensity of the radioisotope was measured by using a scintillation counter.
The above-mentioned determination was applied to the samples having various concentrations. The 5a--reductase inhibitory activity was obtained as a inhibitory rate (%) or a 50% inhibitory concentration (^IC50).
The term IC50 denotes the concentration that inhibits the measured activity by half. Regarding `CCCCC/C=C\C/C=C\C/C=C\C/C=C\CCCC(=O)O` [Arachidonic acid, arachidonic acid], the IC50 amounted to 150 µM.
For `CCCCCCCCCCCC(=O)O` [Lauric acid, lauric acid], the IC50 turned out to be 600 µM.
The same measure, in the same setting: in the case of `CCCCC/C=C\C/C=C\CCCCCCCC(=O)O` [Linoleic acid, linoleic acid] it was 180 µM.
On the same count and under the same terms, the figure for `CCCCCCCCCCCCCC(=O)O` [Myristic acid, myristic acid] is 1800 µM; for `CCCCCCCC/C=C\CCCCCCCC(=O)O` [Oleic Acid, oleic acid] it is 320 µM.
The same measure, in the same setting: in the case of `CCCCCCCCCCCCCCCC(=O)O` [Palmitic acid, palmitic acid] it was 300 µM.
Consider `CCCCCC/C=C\CCCCCCCC(=O)O` [Palmitoleic acid, palmitoleic acid], for which the IC50 worked out at 180 µM.
On the same count and under the same terms, the figure for `CCC=CC=CC=CC=CCCCCCCCC(=O)O` [Parinaric acid, parinaric acid] is 1100 µM; for `CCCCCCCCCCC/C=C\CCCCC(=O)O` [Petroselinic acid, petroselinic acid] it is 280 µM; for `CCCCCCCCCC(=O)O` [n-Capric acid, n-capric acid] it is 500 µM.
Consider `CCCCCCCC(=O)O` [n-Caprylic acid, n-caprylic acid], for which the IC50 worked out at 1700 µM.

A further experiment deals with male rabbits. As to the kind of experiment: fur growth on shorn back of rabbits. Type of experiment: in vivo. Details: Difference b, Average: unit not given here. The note with it: 0.2% fatty acid solution in 80% aqueous ethanol, twice a day for one week. The procedure: Ten week old male rabbits were shorn on the back. A 0.2% fatty acid solution in 80% aqueous ethanol solution was applied, twice a day, to a half-side of the shorn portion of each rabbit for one week. As a control, a 80% aqueous ethanol solution was also applied, twice a day, to the other half-side of the shorn portion of each rabbit for one week (two week for linoleic acid). The length of the grown fur was measured.
Regarding `CCCCC/C=C\C/C=C\C/C=C\C/C=C\CCCC(=O)O` [Arachidonic acid, arachidonic acid], the “Grown fur length Test side a', Average” value is 7.561^*2.
`CCCCCCCCCCCC(=O)O` [Lauric acid, lauric acid]: the “Grown fur length Test side a', Average” value was 5.667^*2.
Consider `CC/C=C\C/C=C\C/C=C\CCCCCCCC(=O)O` [Linolenic acid, linolenic acid], for which the “Grown fur length Test side a', Average” value was 5.46^*2.
Same read-out and setting: in the case of `CCCCCCCCCCCCCC(=O)O` [Myristic acid, myristic acid] it was 6.583^*2; in that of `CCCCCCCC/C=C\CCCCCCCC(=O)O` [Oleic Acid, oleic acid], 6.102^*2.
Same read-out and setting: the figure for `CCCCCCCCCCCCCCCC(=O)O` [Palmitic acid, palmitic acid] is 6.056^*2; for `CCCCCC/C=C\CCCCCCCC(=O)O` [Palmitoleic acid, palmitoleic acid] it is 8.051^*2; for `CCC=CC=CC=CC=CCCCCCCCC(=O)O` [Parinaric acid, parinaric acid] it is 6.83^*2.
Turning to `CCCCCCCCCCC/C=C\CCCCC(=O)O` [Petroselinic acid, petroselinic acid], the “Grown fur length Test side a', Average” value is on record as 6.66^*2.
On the same count and under the same terms, the figure for `CCCCCCCCCC(=O)O` [n-Capric acid, n-capric acid] is 7.542^*2.
For the compound `CCCCCCCC(=O)O` [n-Caprylic acid, n-caprylic acid], the “Grown fur length Test side a', Average” value is recorded as 5.38^*2.

The experiment is the same for the next values; noted with them: 0.2% fatty acid solution in 80% aqueous ethanol, twice a day, two week.
Turning to `CCCCC/C=C\C/C=C\CCCCCCCC(=O)O` [Linoleic acid, linoleic acid], the “Grown fur length Test side a', Average” value is on record as 9.98^*2.

The experiment is the same for the next values; noted with them: test side minus control side, 0.2% fatty acid solution, twice a day for one week.
Take `CCCCC/C=C\C/C=C\C/C=C\C/C=C\CCCC(=O)O` [Arachidonic acid, arachidonic acid]: the “Difference b, Average” value came to 0.78.
Same read-out and setting: the figure for `CCCCCCCCCCCC(=O)O` [Lauric acid, lauric acid] is 0.776.
The same measure, in the same setting: in the case of `CC/C=C\C/C=C\C/C=C\CCCCCCCC(=O)O` [Linolenic acid, linolenic acid] it was 0.45; in that of `CCCCCCCCCCCCCC(=O)O` [Myristic acid, myristic acid], 0.661; in that of `CCCCCCCC/C=C\CCCCCCCC(=O)O` [Oleic Acid, oleic acid], 0.626.
Same read-out and setting: the figure for `CCCCCCCCCCCCCCCC(=O)O` [Palmitic acid, palmitic acid] is 0.958; for `CCCCCC/C=C\CCCCCCCC(=O)O` [Palmitoleic acid, palmitoleic acid] it is 0.862.
Take `CCC=CC=CC=CC=CCCCCCCCC(=O)O` [Parinaric acid, parinaric acid]: the “Difference b, Average” value is 0.60.
On the same count and under the same terms, the figure for `CCCCCCCCCCC/C=C\CCCCC(=O)O` [Petroselinic acid, petroselinic acid] is 0.50.
The same measure, in the same setting: the figure for `CCCCCCCCCC(=O)O` [n-Capric acid, n-capric acid] is 0.557; for `CCCCCCCC(=O)O` [n-Caprylic acid, n-caprylic acid] it is 0.32.

The experiment is the same for the next values; noted with them: test side minus control side, 0.2% fatty acid solution, twice a day, two week.
For `CCCCC/C=C\C/C=C\CCCCCCCC(=O)O` [Linoleic acid, linoleic acid], the “Difference b, Average” value is reported as 0.43.
